# Reference: PubChem BioAssay AID720589 (Broad Institute, 2013)
# System: HepG2 viability, ATP luminescence (CellTiter-Glo), 72 h
# Assay: HepG2 hepatoma cell cytotoxicity, dose response, cytotoxicity control, CellTiter-Glo luminescence, cherry-pick, set 3 (AID 720589)
row,Compound,AC35 [µM]
1,COC(=O)C[C@@H]1CC[C@H]2[C@H](COc3ccc(NC(=O)Nc4ccc(C#N)cc4)cc3C(=O)N2C)O1,4.2
2,CN(C[C@H]1N[C@@H](CO)[C@@H]1c1ccc(C2=CCCC2)cc1)C(=O)c1ccc(F)cc1,4.57
3,CC1(C(=O)NCc2ccco2)Cc2c(-c3cccc(C(N)=O)c3)ccnc2O1 (stereo unspecified),14.5
4,BrC(=C\c1ccccc1)/C=N/n1cnnc1,16.6
5,CC(=O)OC1CC(OC2C(O)CC(OC3C(O)CC(OC4CCC5(C)C(CCC6C5CC(O)C5(C)C(C7=CC(=O)OC7)CCC65O)C4)OC3C)OC2C)OC(C)C1OC1OC(CO)C(O)C(O)C1O (stereo unspecified),0.285
6,C[C@@H]1CN([C@H](C)CO)C(=O)Cc2cc(NC(=O)CCCCCC(=O)Nc3ccccc3N)ccc2O[C@@H]1CN(C)CC1CCCCC1,1.93
7,C[C@]12CCC3C(CCC4=CC(O)CC[C@@]43/C=N/O)C1(O)CCC2C1=CC(=O)OC1 (stereo partly specified),1.57
8,O=c1ccc2ccccc2c2ccccc12,15.5
9,C[C@@H]1CN([C@@H](C)CO)C(=O)c2cccc(NS(=O)(=O)c3ccccc3)c2O[C@@H]1CN(C)Cc1ccc(C(=O)Nc2ccccc2N)cc1,2.11
10,CCc1nc(N)nc(N)c1-c1ccc(Cl)c(N=[N+]=[N-])c1,5
11,CCCCc1c(Cc2ccccc2)ncn1CCc1ccccc1OC,13.5
12,CN(C)CC1CCC/C(=C\c2ccc(OC(=O)c3ccc(Cl)cc3)cc2)C1=O (stereo unspecified),9.84
13,OC[C@H]1O[C@@H](n2cnc3c(NCc4ccco4)ncnc32)[C@H](O)[C@@H]1O,12.1
14,O=C(NC1CCCC1)N1CCCCN2[C@@H](CO)[C@@H](c3ccc(/C=C/c4ccccc4)cc3)[C@@H]2C1,9.99
15,NC(Cc1ccc(C(F)(F)F)cc1)c1csc(NC(=O)Nc2ccccc2Cc2ccccc2)n1 (stereo unspecified),12.4
16,NC1=CC(=O)C(=O)c2cccnc21,13.7
17,Cc1c(CC(=O)NCCCC(=O)O)c(=O)oc2cc3c(cc12)CCC(C)(C)O3,16.3
18,CCCCCCCCCCCCCCCCn1cc[n+](C)c1,4.54
19,COc1cccc(O)c1CN1CCC(C(=O)Nc2ccc(-c3cccc(C)c3)cc2)CC1,10.4
20,Cc1ccc(C(C)C)c(OCc2ccc(C(=O)N/N=C/c3ccc(O)cc3O)cc2)c1,4.24
21,O=C(N/N=C/c1cccs1)c1n[nH]c2c1CCCC2,17.7
22,Oc1cccc(-c2nnc(-c3cccc(O)c3)nn2)c1,17.5

row,Compound,AC35 [µM]
1,C[C@H](CO)N1C[C@H](C)[C@H](CN(C)Cc2ccc(C(=O)Nc3ccccc3N)cc2)Oc2ccc(N(C)C)cc2C1=O,18.2
2,CC(=NNc1cc(C)c2ccccc2n1)c1ccccn1,2.66
3,C[C@@H]1CN([C@@H](C)CO)C(=O)Cc2cc(NS(=O)(=O)c3cccs3)ccc2O[C@H]1CN(C)Cc1ccc(Cl)c(Cl)c1,0.901
4,CN(C[C@H]1N[C@@H](CO)[C@@H]1c1ccc(C2=CCCC2)cc1)C(=O)c1cccc(F)c1,2.88
5,C/C(=N\NC(=O)c1n[nH]c2c1CCC2)c1cccs1,15.6
6,C[C@@H]1CCCCO[C@H](CN(C)Cc2ccc(C(=O)Nc3ccccc3N)cc2)[C@@H](C)CN([C@H](C)CO)C(=O)c2cc(NS(=O)(=O)c3ccc(F)cc3)ccc2O1,10.4
7,C(=N\Nc1nc2ccccc2[nH]1)/c1ccccn1,7.93
8,COc1ccccc1NC(=O)N1CCCCN2[C@H](CO)[C@H](c3ccc(-c4cccc(C)c4)cc3)[C@H]2C1,12.5
9,C(=NNc1ccc2ccccc2n1)c1ccccn1,1.64
10,CC(=O)OC1CC2(O)C3CCC4CC(O)CCC4(C)C3CCC2(C)C1C1=CC(=O)OC1 (stereo unspecified),0.602
11,Cc1nc(N)nc(N)c1CCCc1ccc(Cl)c(Cl)c1,0.761
12,C[C@@H]1CN([C@@H](C)CO)C(=O)c2cccc(NC(=O)CCCCCC(=O)Nc3ccccc3N)c2O[C@@H]1CN(C)Cc1ccc(Oc2ccccc2)cc1,0.458
13,C[C@@H]1CCCCO[C@H](CN(C)Cc2ccc(C(F)(F)F)cc2)[C@H](C)CN([C@H](C)CO)C(=O)c2cc(NC(=O)CCCN(C)C)ccc2O1,9.15
14,CCCCCCCN(c1ccccc1)[C@@H]1C[C@H]2CCCC(=O)N3CC[C@@H](C1)[C@@H]23,17.3
15,Cc1cc(-c2nc3cc(F)ccc3s2)ccc1N,0.0938
16,CC1(C)N=C(N)N=C(N)N1c1ccc(OCCCOc2ccccc2)c(Cl)c1,9.77
17,COc1cc2c(cc1NC(=O)CN(C)Cc1ccc(OC)c(OC)c1)oc1ccccc12,15.6
18,CCc1ccc(/C=C2\SC(=S)N(CCCC(=O)NCCCN3CCOCC3)C2=O)cc1,10.8
19,Nc1nc(N)c2cc(Sc3ccc4ccccc4c3)ccc2n1,3.74
20,COc1ccc(Nc2ncnc3ccc(Br)cc23)c(OC)c1,15.6
21,N#CC(C#N)=C1C=CC=CN1/C(=C\c1ccco1)C(=O)c1ccc(Cl)cc1,11.2
22,C[C@@H]1CN([C@@H](C)CO)C(=O)c2cccc(NS(=O)(=O)c3ccc(F)cc3)c2O[C@@H]1CN(C)Cc1ccc(C(=O)Nc2ccccc2N)cc1,1.45

row,Compound,AC35 [µM]
1,Cc1ccc(S(=O)(=O)Nc2ccc3c(c2)C(=O)N([C@@H](C)CO)C[C@@H](C)[C@@H](CN(C)Cc2ccc(C(=O)Nc4ccccc4N)cc2)O3)cc1,6.33
2,COc1ccc(C(CCNCc2ccc(OC(C)C)cc2)C(C)C)cc1 (stereo unspecified),9.44
3,CCOc1ccc2nc(NC3=NC(c4ccc(OC)cc4)CC(=O)N3)nc(C)c2c1 (stereo unspecified),10.2
4,COC(=O)C1=C(C)N(Cc2cccc(C(F)(F)F)c2)C(=NCc2ccc(OC)cc2)NC1c1cccc(F)c1 (stereo unspecified),7.37
5,COC(=O)c1ccccc1-c1c2ccc(=N)cc-2oc2cc(N)ccc12,10.2
6,CC(=O)Nc1ccc(S(=O)(=O)Nc2ccc(N3CCCCC3)cc2)cc1,19.2
7,C[C@H](CO)N1C[C@H](C)[C@@H](CN(C)Cc2ccc(Oc3ccccc3)cc2)Oc2ccc(NS(=O)(=O)c3ccc(Cl)cc3)cc2CC1=O,10.3
8,OC[C@H]1[C@@H](c2ccc(C#CC3CCCC3)cc2)[C@@H]2CN(CCC(F)(F)F)CCCCN12,9.23
9,O=C(O)c1ccc(N/N=C/c2ccc3c(c2)OCO3)cc1,5.97
10,C[C@@H]1CCCCO[C@H](CN(C)Cc2ccc(C(=O)Nc3ccccc3N)cc2)[C@@H](C)CN([C@@H](C)CO)C(=O)c2cc(NS(=O)(=O)c3ccc(Cl)cc3)ccc2O1,8.5
11,CC12CCC(O)CC1CCC1C2CCC2(C)C(C3=CC(=O)OC3)CCC12O (stereo unspecified),1.17
12,Cc1ccc(S(=O)(=O)Nc2ccc3c(c2)C(=O)N([C@@H](C)CO)C[C@H](C)[C@@H](CN(C)Cc2ccc(C(F)(F)F)cc2)OCCCC[C@@H](C)O3)cc1,13.2
13,CNC[C@H](CC1CCCCC1)NC[C@H](CO)NCCc1cccc(C(F)(F)F)c1,7.57
14,CCN(Cc1ccccc1)c1ccc(/C=N/N=C(N)N)cc1,4.18
15,C[C@@H]1CN([C@H](C)CO)C(=O)c2cc(C#CCN(C)C)cnc2O[C@H]1CN(C)Cc1ccc(-c2ccccc2)cc1,2.79
16,Cc1ccc(C)c(S(=O)(=O)N2CCN(c3ncnc4sccc34)CC2)c1,4.76
17,OCC1OC(n2cnc3c(NCc4ccco4)ncnc32)C(O)C1O (stereo unspecified),3.82
18,CN1C2CCC1/C(=C/c1ccccn1)C(=O)/C2=C\c1ccccn1,1.27
19,Cc1c(CCOC(=O)CC23CC4CC(CC(C)(C4)C2)C3)sc[n+]1CC(=O)c1ccccc1,18.4
20,COC1C(C)OC(OC2CC(C)(O)Cc3cc4c(c(O)c32)C(=O)c2c(O)cc3c(c2C4=O)OC2OC3(C)C(O)C(N(C)C)C2O)C(OC)C1(C)OC (stereo unspecified),0.133
21,C[C@H]1CN([C@@H](C)CO)C(=O)c2cccc(NC(=O)CCCCCC(=O)Nc3ccccc3N)c2O[C@@H]1CN(C)Cc1ccc2c(c1)OCO2,10.5
22,C=C1C(=O)OC2C1CCC(C)C1(O)C=CC(=O)C21C (stereo unspecified),16.4
